Test results: the supplement of paper PMC4862054

Experiments:
Conditions in all cases: incubation time: 72 h
BT-474 [1] = experiment: normalised response (% of control), CellTox Green; higher = less cell death (100 = DMSO, 0 = benzethonium chloride kill control)
In short: (§1)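 Breast cancer cell lines were exposed for 72 h in 384-well plates to compound at 5 concentrations, 10-fold apart, covering a 10,000-fold range fixed for each compound. Plates were read for CellTox Green fluorescence and CellTiter-Glo luminescence and normalised to 0.1 % DMSO (100) and a positive kill control (0). Each value is the normalised signal at one concentration of the series.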

BT-549 [2] = experiment: as above
In short: as §1

CAL-120 [3] = experiment: as above
In short: as §1

CAL-148 [4] = experiment: as above
In short: as §1

CAL-51 [5] = experiment: as above
In short: as §1

CAL-85-1 [6] = experiment: as above
In short: as §1

DU-4475 [7] = experiment: as above
In short: as §1

HCC1143 [8] = experiment: as above
In short: as §1

HCC1599 [9] = experiment: as above
In short: as §1

HCC1937 [10] = experiment: as above
In short: as §1

HDQ-P1 [11] = experiment: as above
In short: as §1

Hs578T [12] = experiment: as above
In short: as §1

MCF-10A [13] = experiment: as above
In short: as §1

MDA-MB-231 [14] = experiment: as above
In short: as §1

MDA-MB-436 [15] = experiment: as above
In short: as §1

MDA-MB-453 [16] = experiment: as above
In short: as §1

MDA-MB-468 [17] = experiment: as above
In short: as §1

MFM-223 [18] = experiment: as above
In short: as §1

BT-474 [19] = experiment: normalised response (% of control), CellTiter-Glo; higher = more viable cells (100 = DMSO, 0 = benzethonium chloride kill control)
In short: as §1

BT-549 [20] = experiment: as above
In short: as §1

CAL-120 [21] = experiment: as above
In short: as §1

CAL-148 [22] = experiment: as above
In short: as §1

CAL-51 [23] = experiment: as above
In short: as §1

CAL-85-1 [24] = experiment: as above
In short: as §1

DU-4475 [25] = experiment: as above
In short: as §1

HCC1143 [26] = experiment: as above
In short: as §1

HCC1599 [27] = experiment: as above
In short: as §1

HCC1937 [28] = experiment: as above
In short: as §1

HDQ-P1 [29] = experiment: as above
In short: as §1

Hs578T [30] = experiment: as above
In short: as §1

MCF-10A [31] = experiment: as above
In short: as §1

MDA-MB-231 [32] = experiment: as above
In short: as §1

MDA-MB-436 [33] = experiment: as above
In short: as §1

MDA-MB-453 [34] = experiment: as above
In short: as §1

MDA-MB-468 [35] = experiment: as above
In short: as §1

MFM-223 [36] = experiment: as above
In short: as §1

SK-BR-3 = experiment: as above
In short: as §1

Compound	normalised response (BT-474 [1]) [%]	normalised response (BT-549 [2]) [%]	normalised response (CAL-120 [3]) [%]	normalised response (CAL-148 [4]) [%]	normalised response (CAL-51 [5]) [%]	normalised response (CAL-85-1 [6]) [%]	normalised response (DU-4475 [7]) [%]	normalised response (HCC1143 [8]) [%]	normalised response (HCC1599 [9]) [%]	normalised response (HCC1937 [10]) [%]	normalised response (HDQ-P1 [11]) [%]	normalised response (Hs578T [12]) [%]	normalised response (MCF-10A [13]) [%]	normalised response (MDA-MB-231 [14]) [%]	normalised response (MDA-MB-436 [15]) [%]	normalised response (MDA-MB-453 [16]) [%]	normalised response (MDA-MB-468 [17]) [%]	normalised response (MFM-223 [18]) [%]	normalised response (BT-474 [19]) [%]	normalised response (BT-549 [20]) [%]	normalised response (CAL-120 [21]) [%]	normalised response (CAL-148 [22]) [%]	normalised response (CAL-51 [23]) [%]	normalised response (CAL-85-1 [24]) [%]	normalised response (DU-4475 [25]) [%]	normalised response (HCC1143 [26]) [%]	normalised response (HCC1599 [27]) [%]	normalised response (HCC1937 [28]) [%]	normalised response (HDQ-P1 [29]) [%]	normalised response (Hs578T [30]) [%]	normalised response (MCF-10A [31]) [%]	normalised response (MDA-MB-231 [32]) [%]	normalised response (MDA-MB-436 [33]) [%]	normalised response (MDA-MB-453 [34]) [%]	normalised response (MDA-MB-468 [35]) [%]	normalised response (MFM-223 [36]) [%]	normalised response (SK-BR-3) [%]
CC(C)NC[C@@H](C(=O)N1CCN(c2ncnc3c2[C@H](C)C[C@H]3O)CC1)c1ccc(Cl)cc1 [GDC-0068] (1000 nM)	74.3	90.5	99.3	34.3	89.6	113	102	121	93.2	115	105	101	74.4	106	113	97.8	95.5	86.1	89.5	70.2	81.4	19	60.5	85.8	91.9	89.3	103	79	65.5	85.4	82.8	92.4	89.1	53.6	60.9	31.7	67.2
CCCc1cc(C)[nH]c(=O)c1CNC(=O)c1cc(-c2ccnc(N3CCN(C)CC3)c2)cc2c1cnn2C(C)C [GSK343] (1000 nM)	97.9	107	96.1	98.2	82.5	98	94.6	98.9	91.5	121	72.7	73.9	107	106	79.6	97.6	183		103	92.9	95	77.9	73.8	101	89.5	95.3	95.9	103	103	101	96.4	97.3	99.1	80.4	87	90.7	83.6
COc1cc2c(cc1-c1c(C)noc1C)ncc1[nH]c(=O)n([C@H](C)c3ccccn3)c12 [I-BET151] (1000 nM)	97.2	93.6	91.8		89.2	83.8	94.7	105	97.9	42.4		79.2	109	123	99.7	106	117	101	77.8	57.5	71.2	101	87.4	57.4	82.9	87.3	97.3	79.5	82.9	52.6	74	85.7	94.7	68.4	86.3	72	82
CN1CCc2c(c3ccccc3n2Cc2ccc(C(=O)NO)cc2)C1 [Tubastatin A] (1000 nM)	99.2	99.6	102	104	91.3	111	105		93.7	98	94.3	81.9	110	98.7	106	105	131	101	91.7	101	93.3	103	53.5	94.7	96.5	94.3	104	92.9	87.9	101	112	91.7	97.5	92.4	90.8	96.9	100
